Reference: US20120134948A1, “ANTIMICROBIAL ETHER GUANIDINES” (EVONIK GOLDSCHMIDT GMBH, priority 2009, published 2012)

Legend:
Assay type in all cases: cell-based
Streptococcus mutans = test: Antimicrobial activity, live microbial count (CFU) after contact in suspension
Method: (§1) The test microorganisms were inoculated from a strain culture into an agar-containing Caso medium (Merck, Darmstadt, Germany) and incubated for 24 h to 48 hours at 25 to 37° C., depending on the microorganism. A Caso slanted agar tube was inoculated with this preculture and again incubated under identical conditions.
(§2) To prepare the microorganism suspension to be tested, the microorganisms were washed off with 5 ml of phosphate-buffer saline (PBS, 50 mM potassium phosphate pH6, 100 mM NaCl), made up to 12.5 ml with PBS and resuspended by vortexing. To carry out the following test, this microorganism suspension was diluted to a microbial count of from 2U+5 to 8U+5.
(§3) The products to be tested made as a stock solution; they contained 10 g of ethanol, 0.68 g of macrogol glycerol hydroxystearate 40 (Cremophor® RH40, Omikron, Neckarwestheim, Germany), 1 g of the active substance to be tested and 38.32 g of double-distilled water. This solution was mixed with the microorganism suspension at a ratio of 1:1 in the test and gave an active substance concentration in the test of 1%. If it was intended to test a lower active substance concentration than 1%, the stock solution of the active substance was made up at a correspondingly lower concentration. The substances tested were the ether guanidine of example 1, and double distilled water by way of negative control.
(§4) To carry out the test, 1 ml-Eppendorf cubes were filled with 500 μl of microorganism suspension and with 500 μl stock solution and the contents were mixed carefully. After 20 min, 1 h and 3 h, respectively, 10 μl were removed from the tubes, and the live microbial count (colony-forming units, CFU) were determined by plating out various dilution of these test mixtures on Caso agar.

[1] = test system: Staphylococcus epidermidis; test: as above
Method: as §1, §2, §3, §4

Corynebacterium xerosis = test: as above
Method: as §1, §2, §3, §4

Malassezia furfur = test: as above
Method: as §1, §2, §3, §4

Propionibacterium acnes = test: as above
Method: as §1, §2, §3, §4

Candida albicans = test: as above
Method: as §1, §2, §3, §4

test microorganisms = test: Antimicrobial activity test, overall statement; settings: overall observation; microbial count in negative controls unchanged
Method: as §1, §2
The products to be tested made as a stock solution; they contained 10 g of ethanol, 0.68 g of macrogol glycerol hydroxystearate 40 (Cremophor® RH40, Omikron, Neckarwestheim, Germany), 1 g of the active substance to be tested and 38.32 g of double-distilled water. […]
as §4

[2] = 1% Ex. 1, 0 min (starting count)

“C12-15-oxypropylguanidinium chloride [Ex. 1]” was tested, and the “CFU/ml 0 min” value (Streptococcus mutans; [2]) was 3.2E+5 CFU/ml, the “CFU/ml 20 min” value (Streptococcus mutans; 1% Ex. 1, 20 min) was <2.0E+2 CFU/ml and the “CFU/ml 60 min” value (Streptococcus mutans; 1% Ex. 1, 60 min) was <2.0E+2 CFU/ml. The “CFU/ml 180 min” value (Streptococcus mutans; 1% Ex. 1, 180 min) was <2.0E+2 CFU/ml, the “CFU/ml 0 min” value [1, 2] was 1.2E+5 CFU/ml and the “CFU/ml 20 min” value ([1]; 1% Ex. 1, 20 min) was <2.0E+2 CFU/ml. For the same substance, the “CFU/ml 60 min” value ([1]; 1% Ex. 1, 60 min) was <2.0E+2 CFU/ml, the “CFU/ml 180 min” value ([1]; 1% Ex. 1, 180 min) was <2.0E+2 CFU/ml and the “CFU/ml 0 min” value (Corynebacterium xerosis; [2]) was 1.7E+5 CFU/ml. The “CFU/ml 20 min” value (Corynebacterium xerosis; 1% Ex. 1, 20 min) was <2.0E+2 CFU/ml, the “CFU/ml 60 min” value (Corynebacterium xerosis; 1% Ex. 1, 60 min) was <2.0E+2 CFU/ml and the “CFU/ml 180 min” value (Corynebacterium xerosis; 1% Ex. 1, 180 min) was <2.0E+2 CFU/ml. For the same substance, the “CFU/ml 0 min” value (Malassezia furfur; [2]) was 1.4E+5 CFU/ml, the “CFU/ml 20 min” value (Malassezia furfur; 1% Ex. 1, 20 min) was <2.0E+2 CFU/ml and the “CFU/ml 60 min” value (Malassezia furfur; 1% Ex. 1, 60 min) was <2.0E+2 CFU/ml. The “CFU/ml 180 min” value (Malassezia furfur; 1% Ex. 1, 180 min) was <2.0E+2 CFU/ml, the “CFU/ml 0 min” value (Propionibacterium acnes; [2]) was 2.0E+5 CFU/ml and the “CFU/ml 20 min” value (Propionibacterium acnes; 1% Ex. 1, 20 min) was <2.0E+2 CFU/ml. For the same substance, the “CFU/ml 60 min” value (Propionibacterium acnes; 1% Ex. 1, 60 min) was <2.0E+2 CFU/ml, the “CFU/ml 180 min” value (Propionibacterium acnes; 1% Ex. 1, 180 min) was <2.0E+2 CFU/ml and the “CFU/ml 0 min” value (Candida albicans; 0.01% Ex. 1, 0 min (starting count)) was 3.9E+5 CFU/ml. The “CFU/ml 20 min” value (Candida albicans; 0.01% Ex. 1, 20 min) was 4.7E+5 CFU/ml, the “CFU/ml 60 min” value (Candida albicans; 0.01% Ex. 1, 60 min) was 2.2E+5 CFU/ml and the “CFU/ml 180 min” value (Candida albicans; 0.01% Ex. 1, 180 min) was 6.1E+4 CFU/ml. For the same substance, the “CFU/ml 0 min” value (Candida albicans; 0.1% Ex. 1, 0 min (starting count)) was 3.9E+5 CFU/ml, the “CFU/ml 20 min” value (Candida albicans; 0.1% Ex. 1, 20 min) was 5.5E+5 CFU/ml and the “CFU/ml 60 min” value (Candida albicans; 0.1% Ex. 1, 60 min) was 4.3E+4 CFU/ml. For the same substance, the “CFU/ml 180 min” value (Candida albicans; 0.1% Ex. 1, 180 min) was <2.0E+2 CFU/ml, the “CFU/ml 0 min” value (Candida albicans; [2]) was 3.9E+5 CFU/ml and the “CFU/ml 20 min” value (Candida albicans; 1% Ex. 1, 20 min) was <2.0E+2 CFU/ml. The “CFU/ml 60 min” value (Candida albicans; 1% Ex. 1, 60 min) was <2.0E+2 CFU/ml, the “CFU/ml 180 min” value (Candida albicans; 1% Ex. 1, 180 min) was <2.0E+2 CFU/ml and the antimicrobial activity (test microorganisms) was “pronounced antimicrobial activity”.
